According to patent US20240156802A1, “METHODS FOR TREATING DISORDERS AMELIORATED BY MUSCARINIC RECEPTOR ACTIVATION” (KARUNA THERAPEUTICS, INC., priority 2021, published 2024):

Assays:
[1] = 25-75 mg TID, 75-225 mg TDD; cited from earlier work
[2] = Phase 1b exploratory PK of xanomeline in healthy elderly subjects given KarXT; type: in vivo, human; details: for blood levels in healthy elderly subjects compared with adults under 65: Cohorts 1 and 2, lower oral doses; for Cmax: human, plasma, oral
Protocol: (§1) The purpose of this Phase 1b clinical trial was to evaluate the safety and tolerability of KarXT in healthy elderly volunteers and to assess its potential efficacy and safety in dementia-related psychosis (DRP). In the Phase 1b trial, the various doses and ratios were evaluated for both xanomeline and trospium in healthy elderly volunteers using a flexible dosing protocol titrated over about 2 to 3 weeks. The maximum dose was reached on Day 12, 15, and 17 in Cohorts 1, 2, and 3, respectively. Dosing lasted a total of 14, 18, and 20 days, respectively. Each cohort consisted of 16 healthy elderly volunteers.
(§2) This was a Phase 1, randomized, double-blind, multiple-dose, adaptive-design study evaluating the safety, tolerability, and exploratory PK of KarXT in healthy elderly subjects. The study consisted of a screening period of up to 28 days. This inpatient investigative period included a treatment period and a post-treatment observation period. A follow-up visit was completed 7±3 days after administering the final dose of the study drug. For Cohort 1, the inpatient investigative period was up to 17 days, including admission, a treatment period of up to 14 days, and a 2-day post-treatment observation period. For Cohort 2, the inpatient investigative period was up to 21 days, including admission, a treatment period of up to 18 days, and a 2-day post-treatment observation period. For Cohort 3, the inpatient investigative period was up to 23 days, including admission, a treatment period of up to 20 days, and a 2-day post-treatment observation period.
Subjects assigned to active treatment in Cohorts 1 and 2 started treatment with a lead-in dose of KarXT for 2 days. Subjects assigned to active treatment in Cohort 3 started treatment with a lead-in dose of KarXT for 4 days. KarXT doses were increased beginning on Day 3 (or Day 5 for Cohort 3) according to cohort-specific plans (FIGURE S 1) to achieve the following final cohort-specific total daily dose (TDD) of KarXT, if tolerated: • Cohort 1: 200/40 mg • Cohort 2: 200/30 mg • Cohort 3: 150/20 mg
The assessment of adverse events, clinical laboratory samples, electrocardiograms (ECGs), vital signs (including orthostatic vital signs), urine output monitoring, Columbia-Suicide Severity Rating Scale (C-SSRS), serial PK sampling, and collecting saliva to measure saliva volume were performed at defined time points during the study.
Table 2 contains the xanomeline Cmax data collected on the final day of the dosing period for cohorts 1, 2, and 3 in the healthy elderly trial compared to day 28 (last day PK data was collected) in the EMERGENT-1 trial for a patient population of ages 18-60 inclusive.

[3] = 26-week study of Alzheimer's disease; cited from earlier work
[4] = 125/30 mg dose group in EMERGENT-1, day 28, ages 18-60, TDD 250 mg; cited from earlier work
[5] = Phase 1b safety and tolerability of KarXT in healthy elderly subjects (adverse events); type: in vivo, human; details: 30 mg TDD versus 40 mg TDD, given with xanomeline, normal elderly volunteers
Protocol: as §1
as §2, with “For Cohort 3, the inpatient investigative period was up to 23 days, including admission, a treatment period of up to 20 days, and a 2-day post-treatment observation period.” left out

Row | SMILES | effect on schizophrenia [1] | blood levels in healthy elderly subjects compared with adults under 65 [2] | Cmax ([2]; Cohort 1, final day of dosing, average dose before PK 67 mg, average TDD 172 mg) | Cmax ([2]; Cohort 2, final day of dosing, average dose before PK 61 mg, average TDD 156 mg) | Cmax ([2]; Cohort 3, final day of dosing, average dose before PK 39 mg, average TDD 116 mg) | mean plasma levels (Cmax) compared with EMERGENT-1 (200-250 mg xanomeline) ([2]; oral xanomeline about 100 to 200 mg per day, healthy elderly volunteers) | dropout rate [3] | mean Cmax of xanomeline [4] | tolerability by trospium dose [5]
1 | CCCCCCOc1nsnc1C1=CCCN(C)C1 [Xanomeline, xanomeline] | alleviated | higher blood levels | 7.3 ± 2 ng/mL | 14.2 ± 5.3 ng/mL | 7.2 ± 2 ng/mL | comparable to, or slightly higher than | 56% | 9.4 ± 1.5 ng/mL | –
2 | O=C(O[C@H]1C[C@H]2CC[C@@H](C1)[N+]21CCCC1)C(O)(c1ccccc1)c1ccccc1 [trospium, trospium chloride] | – | higher blood levels | – | – | – | – | – | – | performed better
